Converted amounts (≈) assume the structure as drawn.

The test system of assay [1] is Staphylococcus aureus. Nature of the assay: Synergistic antimicrobial activity against Staphylococcus aureus 1199B overexpressing NorA efflux pump assessed as norfloxacin MIC incubated for 24 hrs by broth dilution method. The assay is classed as functional. In general terms: In broth dilution the organism is exposed to a series of concentrations in liquid medium.
In assay [2] the target is T1, Quinolone resistance protein NorA (Staphylococcus aureus) (UniProt P0A0J7).
T1 sequence (whole entry): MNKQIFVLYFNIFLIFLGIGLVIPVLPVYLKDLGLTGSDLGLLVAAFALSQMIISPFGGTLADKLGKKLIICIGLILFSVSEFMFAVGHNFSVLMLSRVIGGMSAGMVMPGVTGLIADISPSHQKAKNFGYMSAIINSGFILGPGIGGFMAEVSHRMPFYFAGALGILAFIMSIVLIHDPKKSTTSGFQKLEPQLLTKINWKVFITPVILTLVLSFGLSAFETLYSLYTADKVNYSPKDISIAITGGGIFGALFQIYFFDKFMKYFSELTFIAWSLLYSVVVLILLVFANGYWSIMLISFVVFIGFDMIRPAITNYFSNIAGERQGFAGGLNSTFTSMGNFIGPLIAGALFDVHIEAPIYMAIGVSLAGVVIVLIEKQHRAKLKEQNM
Nature of the assay: Inhibition of NorA efflux pump in Staphylococcus aureus 1199B overexpressing NorA efflux pump assessed as reduction in ciprofloxacin MIC at […] by resazurin based assay (Rvb= 6.25 ug/ml). (The colour change of resazurin is a common sign of viable cells or microbes.)

The target in assay [3] is Quinolone resistance protein NorA (Staphylococcus aureus, UniProt P0A0J7). The experiment in a line: Inhibition of NorA efflux pump in Staphylococcus aureus 1199B overexpressing NorA gene assessed as reduction in EtBr efflux inhibition by spectrofluorometric assay.
Assay [4] deals with T1, Quinolone resistance protein NorA (Staphylococcus aureus). The experiment in a line: Inhibition of NorA efflux pump in Staphylococcus aureus 1199B overexpressing NorA gene assessed as efflux inhibition at 2 mg/L by Hoechst 33342 staining based fluorescence assay.
In assay [5] the test system is Staphylococcus aureus. The experiment in a line: Antibacterial activity against fluoroquinolone-resistant Staphylococcus aureus 1199B overexpressing NorA gene assessed as bacterial growth inhibition by microdilution method. The assay is classed as functional.
Assay [6] has as its system Mycolicibacterium smegmatis. The experiment in a line: Antibacterial activity against Mycobacterium smegmatis ATCC 607 assessed as bacterial growth inhibition incubated for 3 days by CLSI protocol based microbroth dilution method. The assay is classed as functional. The settings on record: ATCC 607, 72 h, time 3 day.
In assay [7] the test system is Staphylococcus aureus. The experiment in a line: Antibacterial activity against Staphylococcus aureus NCTC 8325-4 assessed as bacterial growth inhibition incubated for 18 hrs by broth microdilution method. It counts as functional.
For assay [8], the system named is Staphylococcus aureus. Nature of the assay: Synergistic antimicrobial activity against Staphylococcus aureus 1199B overexpressing NorA efflux pump assessed as reduction in norfloxacin MIC incubated for 24 hrs by MTT colorimetric assay (Rvb= 128 mg/ml). It counts as functional. Background: Formazan colour is commonly taken as a measure of viable cells.
For assay [9], the system named is Staphylococcus aureus. Nature of the assay: Synergistic antimicrobial activity against Staphylococcus aureus 1199B overexpressing NorA efflux pump assessed as fractional inhibitory concentration index incubated for 24 hrs by checkerboard method. It counts as functional.
The subject of assay [10] is Staphylococcus aureus. Nature of the assay: Antibacterial activity against norfloxacin resistant Staphylococcus aureus 1199B harboring NorA efflux pump assessed as bacterial growth inhibition incubated for 24 hrs by broth microdilution method. It counts as functional.
For assay [11], the system named is Staphylococcus aureus. Nature of the assay: Potentiation of tetracycline-induced inhibition of TetK efflux pump in Staphylococcus aureus IS-58 overexpressing TetK efflux pump assessed as reduction in tetracycline MIC at 1/8 times of MIC incubated for 24 hrs by resazurin based assay (Rvb=192 ug/ml).
Assay [12] addresses T1, Quinolone resistance protein NorA (Staphylococcus aureus). The following applies: 1199B.
Assay [13] has as its system Staphylococcus aureus. The experiment in a line: Antibacterial activity against Staphylococcus aureus IS-58 harboring TetK efflux pump protein assessed as bacterial growth inhibition incubated for 24 hrs by broth microdilution method. It counts as functional.
Assay [14] has as its system Staphylococcus aureus. The experiment in a line: Antibacterial activity against methicillin resistant Staphylococcus aureus clinical isolates assessed as bacterial growth inhibition. The assay is classed as functional.
Assay [15] relates to Staphylococcus aureus. The experiment in a line: Synergistic antibacterial activity against methicillin resistant Staphylococcus aureus clinical isolates assessed as fractional inhibitory concentration index in presence of ofloxacin. The assay is classed as functional.
For assay [16], the system named is Staphylococcus aureus. Nature of the assay: Synergistic antibacterial activity against methicillin resistant Staphylococcus aureus clinical isolates assessed as fractional inhibitory concentration index in presence of norfloxacin. The assay is classed as functional.
In assay [17] the test system is Staphylococcus aureus. The experiment in a line: Synergistic antibacterial activity against methicillin resistant Staphylococcus aureus clinical isolates assessed as fractional inhibitory concentration index in presence of ciprofloxacin. It counts as functional.
The subject of assay [18] is Staphylococcus aureus. The experiment in a line: Antibacterial activity against fusidic acid-resistant Staphylococcus aureus APH4' assessed as bacterial growth inhibition incubated for 18 hrs by broth microdilution method. The assay is classed as functional.
The test system of assay [19] is Staphylococcus aureus. Nature of the assay: Antibacterial activity against methicillin-resistant Staphylococcus aureus RN4220/pUL5054 overexpressing MsrA efflux pump assessed as bacterial growth inhibition incubated for 18 hrs by broth microdilution method. The assay is classed as functional.
The subject of assay [20] is Staphylococcus aureus. Nature of the assay: Antibacterial activity against Staphylococcus aureus ST239 assessed as bacterial growth inhibition incubated for 18 hrs by broth microdilution method. It counts as functional.
The subject of assay [21] is Staphylococcus aureus. The experiment in a line: Antibacterial activity against kanamycin-resistant Staphylococcus aureus APH3' assessed as bacterial growth inhibition incubated for 18 hrs by broth microdilution method. The assay is classed as functional.
Assay [22] has as its system Staphylococcus aureus. The experiment in a line: Antibacterial activity against methicillin-resistant Staphylococcus aureus 1199B overexpressing NorA efflux pump assessed as bacterial growth inhibition incubated for 18 hrs by broth microdilution method. It counts as functional.
Assay [23] concerns Staphylococcus aureus. Nature of the assay: Antibacterial activity against gentamicin-resistant Staphylococcus aureus APH2" AAC6 assessed as bacterial growth inhibition incubated for 18 hrs by broth microdilution method. The assay is classed as functional.

For the molecule `COC[C@@H](Cc1ccc(OC)c(OC)c1)[C@@H](COC)Cc1ccc(OC)c(OC)c1`, in the assay with Staphylococcus aureus [1], the MIC was found to be 12.7 µg/mL.
In general, IC50 refers to the concentration at which inhibition is half-maximal. For orientation: inhibition means how much of the control response was suppressed. Turning to `C[C@@H]1O[C@@H](Oc2c(-c3ccc(O)cc3)oc3cc(O)cc(O)c3c2=O)[C@H](OC(=O)/C=C/c2ccc(O)cc2)[C@H](O)[C@H]1OC(=O)/C=C/c1ccc(O)cc1`, the MIC is 0.78 µg/mL in assay [2] and 35 µM with Staphylococcus aureus [5]. Further, the half-maximal inhibitory concentration (IC50) in assay [3] was determined as 2000 nM. The inhibition in assay [4] was 40%.
Consider `COc1c(O)c(OC)c2oc(-c3ccc(O)cc3)c(OC)c(=O)c2c1O`, for which the MIC in [6] was 75 µg/mL (≈ 208 µM); in the assay with Staphylococcus aureus [7], greater than 800 µg/mL.
With `C/C=C/C1=CC2C(=CC1=O)O[C@H](c1ccc(OC)c(OC)c1)[C@H]2C` (stereo partly drawn), the MIC with Staphylococcus aureus [8] came out at 32000 µg/mL. Besides, the “fractional inhibitory concentration index (FICI)” value in the assay on Staphylococcus aureus [9] is recorded as 0.25.
`CC1=CC[C@@H]([C@@](C)(O)CCCC(C)C)CC1`: the MIC with Staphylococcus aureus [10] is no less than 1020 µg/mL; in the assay with Staphylococcus aureus [11] it was 128 µg/mL; in [12], 32 µg/mL (≈ 143 µM); in the assay with Staphylococcus aureus [13], no less than 1020 µg/mL.
On to `CC1=CCC[C@@]2(C)[C@@]1(C)CC[C@@H](C)[C@]2(C)CCC1=CC(=O)O[C@@H]1O`, for which the MIC in the assay on Staphylococcus aureus [14] amounted to 15.6 µg/mL (≈ 47 µM). The “fractional inhibitory concentration index (FICI)” value was found to be 0.324 in the assay with Staphylococcus aureus [15], 0.315 in the assay with Staphylococcus aureus [16] and 0.324 in the assay with Staphylococcus aureus [17].
As for `O=c1cc(-c2ccccc2)oc2cc(O)c(O)c(O)c12` [BAICALEIN], the MIC in the assay on Staphylococcus aureus [18] turned out to be 128 µg/mL (≈ 474 µM); with Staphylococcus aureus [19], 64 µg/mL (≈ 237 µM); in the assay on Staphylococcus aureus [20] it was 128 µg/mL (≈ 474 µM); with Staphylococcus aureus [21] it was 64 µg/mL (≈ 237 µM); in the assay with Staphylococcus aureus [22] it was 128 µg/mL (≈ 474 µM); in the assay on Staphylococcus aureus [23] it was 128 µg/mL (≈ 474 µM).
